{"source": "patent EP4796125A1", "about": "“TREATMENT OF PATIENT WITH NEGATIVE P53 GENE MUTATION, POSITIVE KRAS GENE MUTATION AND POSITIVE BRCA MUTATION” (Ascentawits Pharmaceuticals, Ltd., priority 2023, dated 2025)", "key": {"H460 cells": {"test_system": "H460 cells", "assay": "Applicant's previous cancer cell proliferation inhibition test", "assay_type": "cell-based", "conditions": "Homo sapiens, NCI-H460, single drug, applicant's previous test data"}, "[1]": {"test_system": "cell lines and mouse tumor models of BRCA pathogenic mutations", "conditions": "in vitro and in vivo pharmacodynamic experiments; data of WO2023174319A; cited from earlier work"}, "hepatocellular carcinoma": {"test_system": "hepatocellular carcinoma", "assay": "Phase II clinical trial of AST-3424 conducted in China (CTR20191399)", "assay_type": "in vivo, human", "text": "The clinical trial registration number is CTR20191399.\n• 1. Male or female, aged ≥18 years. • 2. Pathohistologically confirmed advanced HCC that cannot be controlled by surgical resection or local therapy. • 3. Previously received standard systemic therapy, including but not limited to, Sorafenib and/or Oxaliplatin-containing systemic chemotherapy, Lenvatinib, Regorafenib, and/or Nivolumab, experienced disease progression, toxicity intolerance, or refusal to continue treatment with these drugs. • 4. At least one measurable lesion according to RECIST 1.1 criteria. Previously irradiated lesions cannot be considered as measurable lesions unless clear radiographic progression is observed after radiotherapy. • 5. […] Eastern Cooperative Oncology Group (ECOG) performance status score of 0 or 1. • 7. Life expectancy ≥ 12 weeks. • 8. With or without HBV or HCV infection. • a. Subjects with HBV infection must have HBV-DNA level less than 2,000 IU/ml, and receive antiviral therapy with entecavir, tenofovir disoproxil fumarate, or tenofovir alafenamide fumarate according to the national guidelines for the prevention and treatment of chronic hepatitis B. The therapy must be maintained during the study and continue for 6 months after the last dose. • b. Subjects with HCV infection (with detectable HCV-RNA or anti-HCV antibodies) may receive treatment according to medical practice. • 9. Child-Pugh score ≤ 6 points. • 10. No history of hepatic encephalopathy. • 11. Before starting to use the study drug, all toxicities from previous anticancer therapies (except alopecia, fatigue, or peripheral neuropathy) must have recovered to Grade 1 or baseline levels (NCI CTCAE Version 5). • 12. Laboratory tests must meet the following criteria. During 14 days before laboratory tests at screening, indicators cannot be corrected by blood transfusion, hematopoietic stimulating factor or albumin infusion is allowed to meet the inclusion criteria. • a. Hemoglobin ≥ 90 g/L; • b. Platelet count ≥ 80 × 10^9/L; • c. Absolute neutrophil count (ANC) ≥ 1.5 × 10^9/L; • d. Serum total bilirubin ≤ 3 mg/dL; • e. ALT and AST ≤ 5.0 × ULN; • f. International normalized ratio (INR) ≤ 2.3 or prothrombin time prolongation ≤ 6 seconds; • g. Albumin ≥ 29 g/L; • h. Creatinine clearance > 50 mL/min as measured according to the Cockcroft-Gault equation. • 13. No history of alcohol abuse, drug addiction or substance abuse within the past year. • 14. Fertile female patients must be in non-lactating and have a negative pregnancy test result within 5 days before the initiation of treatment (positive urine pregnancy test result needs to be confirmed by a serum pregnancy test). • 15. Fertile female and male subjects must agree to use effective contraceptive measures (e.g. surgical sterilization or condom or diaphragm contraceptive measures combined with spermicidal gel or intrauterine contraceptive device [IUD], etc.) with their partners from the start of study participation until 6 months after the last dose. • 16. Voluntary participation in this study, fully understanding of relevant risks, good compliance, and signing the informed consent form. Subjects may also sign a consent form for future biomedical research (FBR). However, subjects who would not participate in FBR may still participate in the main trial.\n• 1. Untreated active central nervous system (CNS) metastases or leptomeningeal disease. Subjects with adequately treated CNS metastases may participate if they are confirmed to be stable for at least 4 weeks by clinical examination and brain imaging (MRI or CT) during screening. • 2. History of other malignant tumors within 2 years, except for adequately treated basal cell carcinoma, carcinoma in situ at other sites, or other tumors of which the natural medical history and the treatment will not interfere with the safety or efficacy assessment of the current study. • 3. Major surgery (other than diagnostic surgery) performed within 4 weeks prior to the first dose. • 4. […]"}, "A549 cells": {"test_system": "A549 cells", "assay": "Cell cycle G2/M arrest, PI staining and flow cytometry", "assay_type": "cell-based", "conditions": "0.3-9 nM AST-3424 ± 5 µM Nutlin-3 (AST-3424 pre-treatment 2 hours), second experiment (Figure 10)", "method": "The remaining operations were similar to those of the above experiment, and the compound treatment was as follows:\n• For H460 cell line, 1% DMSO, adding 5 µM Nutlin-3 for treatment for 22 hours, adding 0.03 nM AST-3424 for treatment for 24 hours, adding 0.1 nM AST-3424 for treatment for 24 hours, adding 0.3 nM AST-3424 for treatment for 24 hours, and adding 1 nM AST-3424 for treatment for 24 hours; • For A549 cell line, 1% DMSO, adding 5 µM Nutlin-3 for treatment for 22 hours, adding 0.3 nM AST-3424 for treatment for 24 hours, adding 1 nM AST-3424 for treatment for 24 hours, adding […] AST-3424 for treatment for 24 hours.\nFor A549 cell line, • Adding 0.3 nM AST-3424 for pre-treatment for 2 hours, and then adding 5 µM Nutlin-3 for co-treatment for 22 hours; • Adding 1 nM AST-3424 for pre-treatment for 2 hours, and then adding 5 µM Nutlin-3 for co-treatment for 22 hours; • Adding 3 nM AST-3424 for pre-treatment for 2 hours, and then adding 5 µM Nutlin-3 for co-treatment for 22 hours; • Adding 9 nM AST-3424 for pre-treatment for 2 hours, and then adding 5 µM Nutlin-3 for co-treatment for 22 hours."}, "[2]": {"conditions": "6 cases positive (+) for BRCA gene mutation, as of March 11, 2024"}, "[3]": {"conditions": "8 cases negative (-) for BRCA gene mutation, as of March 11, 2024"}, "[4]": {"conditions": "8 cases positive (+) for p53 gene mutation which may affect protein expression (MUT), as of March 11, 2024"}, "[5]": {"conditions": "9 cases negative (-) for p53 gene mutation (WT), as of March 11, 2024"}, "[6]": {"conditions": "18 liver cancer subjects who completed the clinical efficacy evaluation"}, "[7]": {"conditions": "30 enrolled subjects, as of March 11, 2024"}, "[8]": {"conditions": "subgroup of 5 cases negative (-) for BRCA gene mutation, Table 4 data"}, "[9]": {"conditions": "subgroup of 5 cases negative (-) for p53 gene mutation or deficiency, Table 4 data"}, "[10]": {"conditions": "subgroup of 5 cases positive (+) for BRCA gene mutation, Table 4 data"}, "[11]": {"conditions": "subgroup of 5 cases positive (+) for p53 gene mutation or deficiency, Table 4 data"}}}
{"smiles": "C[C@H](OP(=O)(N1CC1)N1CC1)c1ccc([N+](=O)[O-])c(Oc2cccc(C(=O)N(C)C)c2)c1", "note": "[AST-3424]", "values": [{"measurement": "IC50", "setting": "H460 cells", "value": 0.47, "unit": "nM"}, {"measurement": "sensitivity of cell lines and mouse tumor models of BRCA pathogenic mutations", "setting": "[1]", "value": "more sensitive"}, {"measurement": "DCR", "setting": "hepatocellular carcinoma; [2]", "value": 66.7, "unit": "%"}, {"measurement": "ORR", "setting": "hepatocellular carcinoma; [2]", "value": 16.7, "unit": "%"}, {"measurement": "longest OS", "setting": "hepatocellular carcinoma; [2]", "value": "more than 13.8 months"}, {"measurement": "longest PFS", "setting": "hepatocellular carcinoma; [2]", "value": "more than 11.5 months"}, {"measurement": "mean OS", "setting": "hepatocellular carcinoma; [2]", "value": "more than 9.5 months"}, {"measurement": "mean PFS", "setting": "hepatocellular carcinoma; [2]", "value": 4.5, "unit": "months"}, {"measurement": "DCR", "setting": "hepatocellular carcinoma; [3]", "value": 50, "unit": "%"}, {"measurement": "ORR", "setting": "hepatocellular carcinoma; [3]", "value": 0, "unit": "%"}, {"measurement": "longest OS", "setting": "hepatocellular carcinoma; [3]", "value": "more than 17.6 months"}, {"measurement": "longest PFS", "setting": "hepatocellular carcinoma; [3]", "value": 2.9, "unit": "months"}, {"measurement": "mean OS", "setting": "hepatocellular carcinoma; [3]", "value": "more than 9.4 months"}, {"measurement": "mean PFS", "setting": "hepatocellular carcinoma; [3]", "value": 1.9, "unit": "months"}, {"measurement": "DCR", "setting": "hepatocellular carcinoma; [4]", "value": 25, "unit": "%"}, {"measurement": "ORR", "setting": "hepatocellular carcinoma; [4]", "value": 0, "unit": "%"}, {"measurement": "longest OS", "setting": "hepatocellular carcinoma; [4]", "value": "> 14.0", "unit": "months"}, {"measurement": "longest PFS", "setting": "hepatocellular carcinoma; [4]", "value": 1.6, "unit": "months"}, {"measurement": "mean OS", "setting": "hepatocellular carcinoma; [4]", "value": "more than 9.3 months"}, {"measurement": "mean PFS", "setting": "hepatocellular carcinoma; [4]", "value": 1.4, "unit": "months"}, {"measurement": "DCR", "setting": "hepatocellular carcinoma; [5]", "value": 77.8, "unit": "%"}, {"measurement": "ORR", "setting": "hepatocellular carcinoma; [5]", "value": 22.2, "unit": "%"}, {"measurement": "longest OS", "setting": "hepatocellular carcinoma; [5]", "value": "> 13.8", "unit": "months"}, {"measurement": "longest PFS", "setting": "hepatocellular carcinoma; [5]", "value": "more than 11.5 months"}, {"measurement": "mean OS", "setting": "hepatocellular carcinoma; [5]", "value": "more than 7.7 months"}, {"measurement": "mean PFS", "setting": "hepatocellular carcinoma; [5]", "value": "more than 4.1 months"}, {"measurement": "DCR", "setting": "hepatocellular carcinoma; [6]", "value": 61.1, "unit": "%"}, {"measurement": "ORR", "setting": "hepatocellular carcinoma; [6]", "value": 5.6, "unit": "%"}, {"measurement": "longest OS", "setting": "hepatocellular carcinoma; [7]", "value": "> 17.6", "unit": "months"}, {"measurement": "longest PFS", "setting": "hepatocellular carcinoma; [7]", "value": "> 11.5", "unit": "months"}, {"measurement": "DCR", "setting": "hepatocellular carcinoma; [8]", "value": 60, "unit": "%"}, {"measurement": "ORR", "setting": "hepatocellular carcinoma; [8]", "value": 0, "unit": "%"}, {"measurement": "mean PFS", "setting": "hepatocellular carcinoma; [8]", "value": 1.976, "unit": "months"}, {"measurement": "DCR", "setting": "hepatocellular carcinoma; [9]", "value": 80, "unit": "%"}, {"measurement": "ORR", "setting": "hepatocellular carcinoma; [9]", "value": 20, "unit": "%"}, {"measurement": "mean PFS", "setting": "hepatocellular carcinoma; [9]", "value": 4.1, "unit": "months"}, {"measurement": "DCR", "setting": "hepatocellular carcinoma; [10]", "value": 80, "unit": "%"}, {"measurement": "ORR", "setting": "hepatocellular carcinoma; [10]", "value": 20, "unit": "%"}, {"measurement": "mean PFS", "setting": "hepatocellular carcinoma; [10]", "value": 3.82, "unit": "months"}, {"measurement": "DCR", "setting": "hepatocellular carcinoma; [11]", "value": 60, "unit": "%"}, {"measurement": "ORR", "setting": "hepatocellular carcinoma; [11]", "value": 0, "unit": "%"}, {"measurement": "mean PFS", "setting": "hepatocellular carcinoma; [11]", "value": 1.756, "unit": "months"}, {"measurement": "G2/M cell cycle arrest", "setting": "A549 cells", "value": "induces concentration-dependent G2/M cell cycle arrest"}]}
